“And” between values parts separate entries of the source, which are not always exact repeats. Equal values may be shown once.
How the values were obtained:
[1] = Solubility / precipitation of NSAIDs in the vehicles tested; settings: vehicles screened
[2] = Screening of NSAID and vehicle combinations: penetration through cattle skin in vitro (Table 13)
Procedure: Hair was removed using an electric clipper and the subcutaneous fat and musculature carefully trimmed away before the skin was cut into circular sections (approximately 2 cm diameter) using a metal wad punch, and placed in airtight ziplock bags, stored at −20° C. within 5 hr of slaughter.
The skin samples were defrosted immediately prior to use and mounted on Franz diffusion cells. […] A glass cover slip was applied to each donor chamber to prevent evaporation of the donor solution. Samples (200 μL) were collected at regular intervals from the receptor chambers via the sampling port and immediately replenished with equal volumes of fresh receptor solution. At the completion of each study, the diffusions cells were dismantled and the skin discs were rinsed and stored.

[3] = 10% Flunixin, vehicle KET65 (Cromollient-SCE-LQ-(MH), 100% Di-PPG2-Myreth-10-Adipate), sample time 6 hrs
[4] = 10% Flunixin, vehicle KET93: Isopronanol 50% IPN, 1-Ethyl-2-Pryrrolidone 45% EP, Menthol 50 ng/mL, Buffer/EVAP None, sample time 0.5 hrs
[5] = 10% Flunixin, vehicle KET93: Isopronanol 50% IPN, 1-Ethyl-2-Pryrrolidone 45% EP, Menthol 50 ng/mL, Buffer/EVAP None, sample time 2 hrs
[6] = 10% Flunixin, vehicle KET93: Isopronanol 50% IPN, 1-Ethyl-2-Pryrrolidone 45% EP, Menthol 50 ng/mL, Buffer/EVAP None, sample time 4 hrs
[7] = 10% Flunixin, vehicle KET93: Isopronanol 50% IPN, 1-Ethyl-2-Pryrrolidone 45% EP, Menthol 50 ng/mL, Buffer/EVAP None, sample time 6 hrs
[8] = 10% Flunixin, vehicle KET95: Isopronanol 50% IPN, 1-Ethyl-2-Pryrrolidone 45% EP, Menthol 50 ng/mL, Buffer/EVAP None, sample time 0.2 hrs
[9] = 10% Flunixin, vehicle KET95: Isopronanol 50% IPN, 1-Ethyl-2-Pryrrolidone 45% EP, Menthol 50 ng/mL, Buffer/EVAP None, sample time 0.5 hrs
[10] = 10% Flunixin, vehicle KET95: Isopronanol 50% IPN, 1-Ethyl-2-Pryrrolidone 45% EP, Menthol 50 ng/mL, Buffer/EVAP None, sample time 2 hrs
[11] = 10% Flunixin, vehicle KET95: Isopronanol 50% IPN, 1-Ethyl-2-Pryrrolidone 45% EP, Menthol 50 ng/mL, Buffer/EVAP None, sample time 4 hrs
[12] = 10% Flunixin, vehicle KET96: Isopronanol 50% IPN, Propylene glycol 45% PPG, Eucalyptus oil […] 1,8-cineole, Buffer/EVAP None, sample time not printed (sample KET1430, replicate 1)
[13] = Flunixin 10% in vehicle KET46: Ethanol 70% EthOH, Propylene glycol 30% PPG, terpene None, 0.1M citrate, sample time 6 hrs
[14] = Flunixin 10% in vehicle KET46: Ethanol 70% EthOH, Propylene glycol 30% PPG, terpene None, 0.1M citrate, sample time 8 hrs

For `Cc1c(Nc2ncccc2C(=O)O)cccc1C(F)(F)F` [flunixin, flunixin meglumine], the solubility in vehicles [1] was “most soluble in the majority of vehicles examined”, the Concentration ([2]; 10% Flunixin, vehicle KET65 (Cromollient-SCE-LQ-(MH), 100% Di-PPG2-Myreth-10-Adipate), sample time 0.5 hrs) was 0 ng/mL and the Concentration ([2]; 10% Flunixin, vehicle KET65 (Cromollient-SCE-LQ-(MH), 100% Di-PPG2-Myreth-10-Adipate), sample time 2 hrs) was 0 ng/mL. The analysis conc ([2]; 10% Flunixin, vehicle KET65 (Cromollient-SCE-LQ-(MH), 100% Di-PPG2-Myreth-10-Adipate), sample time 4 hrs) was 0.006 and 0.005, the Concentration [2, 3] was 18 ng/mL and 21 ng/mL and 15 ng/mL and the analysis conc [2, 3] was 0.006 and 0.007 and 0.005. The Concentration [2, 4] was 96 ng/mL, the analysis conc [2, 4] was 0.032 and the Concentration [2, 5] was 102 ng/mL. The analysis conc [2, 5] was 0.034, the Concentration [2, 6] was 543 ng/mL and the analysis conc [2, 6] was 0.181. The Concentration [2, 7] was 579 ng/mL, the analysis conc [2, 7] was 0.193 and the Concentration ([2]; 10% Flunixin, vehicle KET94: Isopronanol 50% IPN, Propylene glycol 45% PPG, Eucalyptus oil […] 1,8-cineole, Buffer/EVAP None, sample time 2 hrs) was 135 ng/mL. It also gave a Concentration ([2]; 10% Flunixin, vehicle KET94: Isopronanol 50% IPN, Propylene glycol 45% PPG, Eucalyptus oil […] 1,8-cineole, Buffer/EVAP None, sample time 2 hrs, listed as Flunixin) of 123 ng/mL, a Concentration [2, 8] of 114 ng/mL and an analysis conc [2, 8] of 0.038. The Concentration [2, 9] was 159 ng/mL and 237 ng/mL, the analysis conc [2, 9] was 0.053 and 0.079 and the Concentration [2, 10] was 165 ng/mL and 246 ng/mL and 132 ng/mL. The analysis conc [2, 10] was 0.055 and 0.082 and 0.044, the Concentration [2, 11] was 186 ng/mL and 285 ng/mL and 147 ng/mL and the analysis conc [2, 11] was 0.062 and 0.095 and 0.049. For the same compound, the Concentration [2, 12] was 60 ng/mL, the analysis conc [2, 12] was 0.02 and the “Concentration” value ([2]; Flunixin 10% in vehicle KET46: Ethanol 70% EthOH, Propylene glycol 30% PPG, terpene None, 0.1M citrate, sample time 2 hrs) was 0 ng/mL. For the same compound, the “Concentration” value ([2]; Flunixin 10% in vehicle KET46: Ethanol 70% EthOH, Propylene glycol 30% PPG, terpene None, 0.1M citrate, sample time 4 hrs) was 0 ng/mL, the “Concentration” value [2, 13] was 36 ng/mL and the analysis conc [2, 13] was 0.012. For the same compound, the “Concentration” value [2, 14] was 36 ng/mL, the analysis conc [2, 14] was 0.012 and the analysis conc ([2]; Flunixin 10% in vehicle KET47: Ethanol 70% EthOH, Propylene glycol 30% PPG, Menthol 50 mg/mL, 0.1M citrate, sample time 0.5 hrs) was 0.009. For the same compound, the Concentration ([2]; Flunixin 50%, vehicle KET38: Ethanol 50% EthOH, no co-solvent, Menthol 50 mg/mL, sample time 0.5 hrs, replicates 1-3) was 0 ng/mL, the Concentration ([2]; Flunixin 50%, vehicle KET38: Ethanol 50% EthOH, no co-solvent, Menthol 50 mg/mL, sample time 2 hrs, replicates 1-3) was 0 ng/mL and the Concentration ([2]; Flunixin 50%, vehicle KET38: Ethanol 50% EthOH, no co-solvent, Menthol 50 mg/mL, sample time 4 hrs, replicates 1-3) was 0 ng/mL. It also gave a Concentration ([2]; Flunixin 50%, vehicle KET38: Ethanol 50% EthOH, no co-solvent, Menthol 50 mg/mL, sample time 6 hrs, replicates 1-3) of 0 ng/mL and a Concentration ([2]; Flunixin 50%, vehicle KET38: Ethanol 50% EthOH, no co-solvent, Menthol 50 mg/mL, sample time 8 hrs, replicates 1-3) of 0 ng/mL.
